Experimental data: patent publication US20240425855A1, “NUCLEIC ACID-[…] RNAS FOR TRIGGER-[…]” (Hoffmann-La Roche Inc., priority 2021, published 2024)

Columns and labels:
[1] = system: K4/K19 tetracycline-responsive ribozyme-switch; assay: K4/K19 tetracycline-responsive ribozyme-switch controlling GFP expression in stably transfected cells (FACS); assay type: cell-based, CHO; details: 50 μM tetracycline concentration; GFP readout
Protocol: The method according to the current invention is exemplified first in the following using the K4/K19 tetracycline-responsive ribozyme-switch generated by Beilstein et al. (ACS Synth. Biol., […] (2015) 526-534). This is presented solely as an illustration of the method according to the invention and shall not be construed as limitation thereof. The true scope is set forth in the appended claims.
Whilst the output measurement was different (Luciferase vs GFP) a 1.9× fold-increase at 50 μM tetracycline concentration was achieved (FIG. 4 and FIG. 5).
For testing and screening RNA-switches that control the mRNA degradation of a GFP reporter were cloned into the front plasmid, whereas the red-shifted iRFP gene was cloned into the back plasmid and was used for fluorescence normalization purposes. Expressed genes were placed under the control of a strong promoter (SV40). The RNA-switches constructs were cloned downstream of the GFP gene and before the bovine growth hormone polyadenylation (bGH-polyA) signal sequence. For each construct, both the complementary and anti-complementary strands were ordered as 5′-phosphorylated ssDNA oligonucleotides at Microsynth AG (Belgach, Switzerland) and were annealed by snap cooling at 0.166 μM concentration. […]

[2] = system: Env140-based LNA-regulatable ribozyme (cell lines S69 and S70); assay: LNA-activation assay and flow cytometry of GFP expression; design: species or system CHO; details: stable cell lines with inducible/switchable construct and inactive construct; FACS
Protocol: S69 and S70, were seeded at 50,000 cells/well into a flat-bottom round wells 96-well microplate, in 200 μL media, and incubated in standard static cell culture condition with or without 12.5 μM LNA oligonucleotide added from three to seven days, after which a 70 μL aliquot was removed and analyzed by flow cytometry. Flow cytometry was performed on a 4-6 color BD FACSCanto™ or FACS Celesta™ System using the FITC channel for the evaluation of GFP expression, and APC channel for iRFP expression. The population of cells was gated to avoid cell doublets detected by the forward and side scattering.

Compound | fold-increase (GFP output) [1] [fold] | shift of GFP fluorescence upon application of the LNA [2]
CN(C)[C@@H]1C(O)=C(C(N)=O)C(=O)[C@@]2(O)C(O)=C3C(=O)c4c(O)cccc4[C@@](C)(O)[C@H]3C[C@@H]12 [tetracycline] | 1.9 | –
ATTGTGCCTGAGGGTAGT (all phosphorothioate, sugars by position and methylation of C not given here; some nucleotides are LNA) | – | fluorescence is shifted
